Each block holds one compound with its values, some of them ahead of it.
Columns and labels:
PDI = PDI (Homo sapiens, UniProt P07237); test: Insulin turbidity assay, PDI; format: biochemical; conditions: for Effect on enzyme activity of PDI: 300 μM, highest concentration tested
Procedure: (§1) Initial compound library screening was performed in an insulin turbidity assay adapted for high‐throughput screening (Holmgren, [1979]; Smith et al., [2004]). The reduction of the disulphide bond in insulin by a thiol isomerase results in the separation of the A and B chains and precipitation, which is measured by spectrophotometry at a wavelength of 650 nm. Using Corning 3891 well plates (with a final volume of 10 μl), a final concentration of 10 μg·ml^−1 of ERp57, 125‐μM insulin and 2‐mM EDTA in potassium phosphate buffer (100 mM) was added to each experimental well. Bacitracin (3 mM) was added to select wells as a positive control and vehicle plates served as a negative control. Experimental compounds were pin transferred to the wells at a final concentration of 30 μM and plates shaken. After incubation for 10 min, 0.3‐mM DTT was added to propagate enzyme activity. Following reaction for 1 hr at 37°C, plates were read using a PerkinElmer Envision plate reader (PerkinElmer, Waltham, MA). All compounds were tested in duplicate at the ICCB‐Longwood Screening Facility at Harvard Medical School.
(§2) Lead compounds were diluted in a 6‐point dose curve (concentrations depending on the observed effects in the initial screen) and insulin turbidity was measured kinetically each minute for 75 min using a Spectramax M3 microplate reader (Molecular Devices, Sunnyvale, CA). Specificity assay also utilised the insulin turbidity assay to determine specificity of inhibition; ERp57 was replaced with PDI (10 μg·ml^−1), ERp5 (30 μg·ml^−1), ERp72 (10 μg·ml^−1) or thioredoxin (10 μg·ml^−1), to determine the ability of lead compounds to inhibit these enzymes.
(§3) A total of 3,641 compounds were screened for inhibitory effects on the redox activity of ERp5, protein disulphide isomerase (PDI), ERp57, ERp72 and thioredoxin (TRX), all assayed at 10 μg·ml^−1 except ERp5 which was assayed at 30 μg·ml^−1. ZFL was selected for further investigation. […] (a) Enzyme assays performed in the absence of enzyme with drug only.

ERp57 = target: T1, ERp57 (Homo sapiens, UniProt P30101); test: Insulin turbidity assay, ERp57; format: biochemical; conditions: for Effect on enzyme activity of ERp57: 300 μM, highest concentration tested
T1 sequence (P30101 25-505): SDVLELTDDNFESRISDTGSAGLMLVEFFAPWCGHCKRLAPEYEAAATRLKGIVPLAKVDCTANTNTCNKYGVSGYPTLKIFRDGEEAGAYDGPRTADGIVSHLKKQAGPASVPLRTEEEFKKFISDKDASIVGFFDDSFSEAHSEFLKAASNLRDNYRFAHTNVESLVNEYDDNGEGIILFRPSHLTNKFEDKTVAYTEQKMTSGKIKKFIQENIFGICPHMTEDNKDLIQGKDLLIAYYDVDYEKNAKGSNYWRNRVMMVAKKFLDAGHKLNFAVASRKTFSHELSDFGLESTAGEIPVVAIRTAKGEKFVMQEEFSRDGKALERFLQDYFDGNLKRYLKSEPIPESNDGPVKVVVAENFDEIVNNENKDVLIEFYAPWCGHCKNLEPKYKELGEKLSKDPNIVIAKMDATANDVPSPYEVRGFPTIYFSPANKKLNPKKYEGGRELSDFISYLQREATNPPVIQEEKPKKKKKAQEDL
Procedure: as §1, §2, §3

thioredoxin (TRX) = target: T2, thioredoxin (TRX) (Homo sapiens, UniProt P10599); test: Insulin turbidity assay, thioredoxin; format: biochemical; conditions: for Effect on enzyme activity of thioredoxin: 300 μM, highest concentration tested
T2 sequence (P10599 1-105): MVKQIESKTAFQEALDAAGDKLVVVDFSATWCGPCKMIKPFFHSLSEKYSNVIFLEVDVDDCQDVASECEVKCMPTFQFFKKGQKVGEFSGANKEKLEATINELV
Procedure: as §1, §2, §3

ERp72 = target: T3, ERp72 (Homo sapiens, UniProt P13667); test: Insulin turbidity assay, ERp72; format: biochemical; conditions: ERp72 10 μg·ml^−1, 650 nm, 37°C
T3 sequence (P13667 21-645): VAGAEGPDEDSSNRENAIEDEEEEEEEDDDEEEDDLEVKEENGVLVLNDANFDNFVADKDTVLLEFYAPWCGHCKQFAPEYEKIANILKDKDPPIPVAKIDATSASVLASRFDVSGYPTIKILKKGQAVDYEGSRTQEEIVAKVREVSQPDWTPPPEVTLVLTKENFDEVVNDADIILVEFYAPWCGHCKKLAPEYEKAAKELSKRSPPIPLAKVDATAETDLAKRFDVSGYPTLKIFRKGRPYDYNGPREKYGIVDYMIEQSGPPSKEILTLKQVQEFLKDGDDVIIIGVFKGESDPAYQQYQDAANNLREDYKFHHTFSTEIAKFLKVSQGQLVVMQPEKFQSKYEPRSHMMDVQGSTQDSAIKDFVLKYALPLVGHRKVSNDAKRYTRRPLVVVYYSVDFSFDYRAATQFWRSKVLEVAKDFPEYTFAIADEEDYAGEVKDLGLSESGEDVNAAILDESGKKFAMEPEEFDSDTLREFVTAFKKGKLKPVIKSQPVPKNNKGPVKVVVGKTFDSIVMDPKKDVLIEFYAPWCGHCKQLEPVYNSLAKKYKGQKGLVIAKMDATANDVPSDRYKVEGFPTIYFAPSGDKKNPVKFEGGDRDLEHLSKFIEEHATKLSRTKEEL
Procedure: as §1
(§4) Lead compounds were diluted in a 6‐point dose curve (concentrations depending on the observed effects in the initial screen) and insulin turbidity was measured kinetically each minute for 75 min using a Spectramax M3 microplate reader (Molecular Devices, Sunnyvale, CA). […]

ERp5 = target: T4, ERp5 (Homo sapiens, UniProt Q15084); test: Insulin turbidity assay, ERp5; format: biochemical; conditions: ERp5 30 μg·ml^−1, 650 nm, 37°C
T4 sequence (Q15084 20-440): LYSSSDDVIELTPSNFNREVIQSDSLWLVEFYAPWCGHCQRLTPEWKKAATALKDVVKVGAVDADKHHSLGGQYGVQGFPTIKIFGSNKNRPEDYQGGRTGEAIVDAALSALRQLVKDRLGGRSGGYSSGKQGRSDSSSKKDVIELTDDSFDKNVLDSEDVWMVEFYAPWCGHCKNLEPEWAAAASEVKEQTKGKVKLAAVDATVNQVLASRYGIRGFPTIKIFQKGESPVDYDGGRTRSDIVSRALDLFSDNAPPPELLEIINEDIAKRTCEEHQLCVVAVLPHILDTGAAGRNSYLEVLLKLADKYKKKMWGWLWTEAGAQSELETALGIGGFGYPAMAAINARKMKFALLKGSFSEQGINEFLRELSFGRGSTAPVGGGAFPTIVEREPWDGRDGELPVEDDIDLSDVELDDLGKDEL
Procedure: as §1, §4

thrombus formation = test: Laser injury arterial thrombus formation, cremaster muscle arterioles, intravital microscopy; format: in vivo, mouse; conditions: 20 μM circulating concentration, i.v., male C57BL/6J mice, n = 12 thrombi
Procedure: (§5) Male C57BL/6J mice (RRID:IMSR_JAX:000664 bred in house, at age 4–5 weeks with a weight range of 19–25 g) were anaesthetised by intraperitoneal injection of ketamine (125 mg·kg^−1), xylazine (12.5 mg·kg^−1) and atropine (0.25 mg·kg^−1). Platelets were labelled by intravenous infusion of DyLight 649‐conjugated anti‐GPIb platelet labelling antibody (0.2 μg·g^−1 body weight). […] Thrombi were observed using an Olympus BX microscope (Olympus, Essex, UK) and a Hamamatsu (Hamamatsu Photonics, Hertfordshire, UK) CCD camera and data analysed using Slidebook Software version 5.0 (Intelligent Imaging Innovations, Denver, USA) (Falati et al., [2006]; Holbrook et al., [2018]; Holbrook et al., [2012]). Mice were killed using Schedule 1 approved methods at the end of the experiment. […] Time to bleeding cessation was recorded. […] Animal experiments were approved by the University of Reading Local Ethical Review Panel and authorised by the UK Home Office. […]
(§6) Following laser injury, images were recorded for 5 min. […] Graphs represent mean ± SEM, n = 10 per treatment; data were analysed by Student's t‐test, *P < 0.05

[1] = system: haemostasis (bleeding time); test: Tail bleeding assay; format: in vivo, mouse; conditions: 20 μM circulating concentration, femoral vein, 5 min before tail biopsy, n = 10; vehicle 225 s ± 28 s; not significant
Procedure: as §5, §6

MDA-MB-231 cells [2] = test: Cell migration scratch assay, MDA-MB-231; format: cell-based, human; conditions: 20 μM, 37 hr
Procedure: (§7) MDA‐MB‐231 (ATCC Cat# HTB‐26, RRID:CVCL_0062) or HEK293T (ATCC Cat# CRL‐3216, RRID:CVCL_0063) were seeded into wells of a 12‐well plate (fibronectin coated, 10 μg·ml^−1) and grown to confluence in DMEM supplemented with 10% (v/v) FBS and 1% (v/v) penicillin–streptomycin. Following aspiration of media, a vertical scratch was performed to bisect the well and detached cells were removed by PBS washes. […] Images were analysed using Zeiss Axiovision software, and closure areas calculated using Fiji ImageJ. At 37/40 hr post‐scratch, cells were fixed in 4% (v/v) paraformaldehyde for 20 min and permeabilised with 0.2% (v/v) Triton X‐100 for 10 min. Cells were stained with phalloidin‐568 (dilution of 1:250, in PBS) for 1 hr and following washes, counterstained with DAPI (1:1,000) for 20 min. Cells were washed in PBS and mounted using Vectashield H‐1000.

MDA-MB-231 cells [3] = test: 3-day growth inhibition (proliferation) assay, MDA-MB-231; format: cell-based, human; conditions: 72 hr
Procedure: (§8) MDA‐MB‐231 or HEK293T cells were seeded at a density of 2.5 × 10^5 cells per well in a six‐well cell culture plate and grown for 24 hr. […] Following drug treatment, wells were washed and cells manually counted by haemocytometer or automatically using a Coulter counter (Beckman Coulter, CA, USA). Cell growth inhibition was calculated by comparing the counts of drug treated cells with untreated (control) cells as described previously (Kennedy et al., [2007]).

[4] = system: MDA-MB-231 cell-surface free thiols; test: Cell-surface free thiol labelling with MPB, MDA-MB-231; format: cell-based, human; conditions: 20 μM, vs vehicle
Procedure: (§9) MDA‐MB‐231 or HEK293T cells were cultured and treated as described before. Four hours post‐treatment, cells were washed with PBS, and free thiols labelled by incubation with MPB (100 μM) for 20 min. Free label was removed by multiple PBS washes, and cells were lysed in reducing sample treatment buffer for SDS‐PAGE analysis. Thiol labelling was detected using streptavidin‐HRP conjugate (1:10,000 dilution in 5% [w/v] BSA/TBS‐T), and chemiluminescence captured following the addition of ECL substrate.

HEK293T cells [5] = test: Cell migration scratch assay, HEK293T; format: cell-based, human; conditions: 20 μM, 40 hr
Procedure: as §7

HEK293T cells [6] = test: Proliferation assay, HEK293T; format: cell-based, human; conditions: 1–30 μM, 72 hr
Procedure: as §8

[7] = system: HEK293T cell-surface free thiols; test: Cell-surface free thiol labelling with MPB, HEK293T; format: cell-based, human; conditions: 20 μM, vs vehicle
Procedure: as §9

[8] = parameters: method as in Fischer et al., [2000]; conditions: oral 20 mg twice daily; ref Fischer et al., [2000]; cited from earlier work

Chain of PDI (P07237 18-508, species assumed): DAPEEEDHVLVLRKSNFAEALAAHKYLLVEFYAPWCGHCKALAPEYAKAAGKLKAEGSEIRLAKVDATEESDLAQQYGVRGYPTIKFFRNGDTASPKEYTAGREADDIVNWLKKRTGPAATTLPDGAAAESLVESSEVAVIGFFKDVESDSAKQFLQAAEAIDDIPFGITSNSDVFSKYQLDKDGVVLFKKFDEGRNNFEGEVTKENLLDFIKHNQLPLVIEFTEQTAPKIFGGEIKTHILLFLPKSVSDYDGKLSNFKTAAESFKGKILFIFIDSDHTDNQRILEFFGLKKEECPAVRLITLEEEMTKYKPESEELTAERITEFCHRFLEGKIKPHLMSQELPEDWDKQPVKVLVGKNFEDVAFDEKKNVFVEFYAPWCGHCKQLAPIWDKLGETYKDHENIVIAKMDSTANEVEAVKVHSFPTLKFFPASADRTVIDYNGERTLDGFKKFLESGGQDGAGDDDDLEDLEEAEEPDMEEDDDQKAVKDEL

- Effect on enzyme activity of PDI (PDI): almost entirely ablate
- Effect on enzyme activity of ERp57 (ERp57): almost entirely ablate
- Effect on enzyme activity of thioredoxin (thioredoxin (TRX)): almost entirely ablate
Structure (SMILES): CC(C)(O)c1ccccc1CC[C@@H](SCC1(CC(=O)O)CC1)c1cccc(/C=C/c2ccc3ccc(Cl)cc3n2)c1 [montelukast]

- Effect on enzyme activity of PDI (PDI): almost entirely ablate
- Inhibition of PDI activity, concentration dependence (PDI; PDI 10 μg·ml^−1, 650 nm, 37°C): concentration dependently inhibits
- Effect on enzyme activity of ERp57 (ERp57): almost entirely ablate
- Inhibition of ERp57 activity, concentration dependence (ERp57; ERp57 10 μg·ml^−1, 650 nm, 37°C): concentration dependently inhibits
- Effect on enzyme activity of thioredoxin (thioredoxin (TRX)): almost entirely ablate
- Inhibition of thioredoxin (TRX) activity, concentration dependence (thioredoxin (TRX); TRX 10 μg·ml^−1, 650 nm, 37°C): concentration dependently inhibits
- Inhibition of ERp72 activity, concentration dependence (ERp72): concentration dependently inhibits
- Inhibition of ERp5 activity, concentration dependence (ERp5): concentration dependently inhibits
- Bleeding time [1]: 243 s
Structure (SMILES): COc1cc(C(=O)NS(=O)(=O)c2ccccc2C)ccc1Cc1cn(C)c2ccc(NC(=O)OC3CCCC3)cc12 [zafirlukast]
- Thrombus size (maximum fluorescence intensity) (thrombus formation): significantly impaired
- Closure area at endpoint (MDA-MB-231 cells [2]; vehicle 62,163 ± 23,552): 243,707 ± 51,057
- Scratch area covered at endpoint (MDA-MB-231 cells [2]; vehicle over 86%): 56%
- Effect on cell proliferation (MDA-MB-231 cells [3]; 20 μM): minimal effect
- Reduction of proliferation (MDA-MB-231 cells [3]; 30 μM): around 20%
- Reduction of surface free thiol (MPB) labelling [4]: 42%
- Closure area at endpoint (HEK293T cells [5]; vehicle 80,686 [±15,705]): 1,475,154 [±81,061]
- Scratch area coverage (migration) at endpoint (HEK293T cells [5]; vehicle over 96%): 32%
- Impairment of cell proliferation (HEK293T cells [6]): not detected
- Decrease of surface MPB labelling [7]: 47%
- Peak plasma concentration (cMax) [8]: 697 ng/mL
- Peak plasma concentration, equivalent [8]: 1.2 µM
- Time of peak plasma concentration [8]: 3 h

Reference: publication PMC9328650 (British Journal of Pharmacology, 2021)
